{"source": "patent US20200289434A1", "about": "“RAPIDLY IMPROVING ENDOTHELIAL FUNCTION, REDUCING ARTERIAL STIFFNESS AND REVERSING CALCIFICATION OF BLOOD VESSELS BY ADMINISTERING VITAMIN K” (KAYDENCE PHARMA AS, priority 2019, published 2020)", "key": {"[1]": {"test_system": "kidney transplantation patients", "assay": "Clinical study: pulse wave velocity measurement of arterial stiffness", "format": "in vivo, human", "settings": "kidney transplant patients, 360 ug/day, 8 weeks", "description": "Clinical Study to study the efficacy and safety of Vitamin K2 supplementation on arterial stiffness, the rigidity of arterial walls, in kidney transplantation patients.\nA clinical study was carried out. Arterial wall property measurements were taken at t=0 and t=8 weeks and show a dramatic improvement in arterial wall flexibility. This is good support for concluding that the ingestion of vitamin K, even over this short period, is an effective way of improving endothelial function, reducing arterial stiffness and reducing calcification. […] It is surprising and unexpected because calcification is a slow progressive process and it was thought that reversing this process would also be slow and progressive.\nParticipants were enrolled in a clinical trial in which the effects of vitamin K2 were determined for patients who had recently undergone a kidney transplant. At the beginning of the study, patients were subjected to a non-invasive pulse wave velocity measurement to measure arterial stiffness/flexibility, as well as blood analysis. The study participants were then instructed to receive a specific daily dose of MenaQ7 vitamin K2 menaquinone-7 (360 ug/day) for a total of 8 weeks. At the end of 8 weeks, patients were again examined with a follow-up examination, a non-invasive pulse wave velocity measurement and blood analysis and drug treatment was discontinued."}, "ApoE/LDLR−/− mice [2]": {"test_system": "ApoE/LDLR−/− mice", "assay": "Example 2: nitrite and nitrate concentration in plasma (ENO-20)", "format": "in vivo", "settings": "two months", "description": "Nitrite (NO2−) and nitrate (NO3−) concentration in plasma—HPLC-based ENO-20\nBlood samples were collected from heart into test tubes containing additional anticoagulant and centrifuged at 1000 g for 10 min at 4° C. The samples were used for HPLC measurement of nitrate (NO3^−) and nitrite (NO2^−) concentrations in plasma by an ENO-20 NOx Analyzer."}, "ApoE/LDLR−/− mice [3]": {"test_system": "ApoE/LDLR−/− mice", "assay": "Example 3 second part: MRI assessment of Ach-induced response in BCA and LCA, older mice", "format": "in vivo", "settings": "eight weeks, 24-week-old mice", "description": "Magnetic resonance imaging (MRI) experiments were performed using a 9.4T scanner (BioSpec 94/20 USR, Bruker, Germany) located in the Department of Magnetic Resonance Imaging, Institute of Nuclear Physics, Polish Academy of Sciences in Krakow. During the experiment, mice were anaesthetized using isoflurane (Aerrane, Baxter Sp. z o. o., Poland, 1.7 vol %) in an oxygen and air (1:2) mixture and imaged in the supine position. Activity of the heart, respiration, and body temperature (maintained at 37° C. using circulating warm water) were monitored using a Monitoring and Gating System (SA Inc., Stony Brook, N.Y., USA).\nEndothelial function was assessed based on vascular responses to acetylcholine (Ach) administration in brachiocephalic artery (BCA), left common carotid artery (LCA) (FIGS. 6 A and B) and abdominal aorta (AA) (FIG. 6C) as well as to responses to increase in flow (flow-mediated dilatation, FMD) in femoral artery (FA) (FIG. 6D) as described in Bar A, Skorka T, Jasinski K, Sternak M, Bartel Z, Tyrankiewicz U, et al. Retrospectively-gated MRI for in vivo assessment of endothelium-dependent vasodilatation and endothelial permeability in murine models of endothelial dysfunction. NMR Biomed 2016; 29(8):1088.; Sternak M, Bar A, Adamski M G, Mohaissen T, Marczyk B, Kieronska A, et al. The Deletion of Endothelial Sodium Channel α (αENaC) Impairs Endothelium-Dependent Vasodilation and Endothelial Barrier Integrity in Endotoxemia in Vivo. […]\nVasomotor response was examined by comparing two time-resolved 3D images of the vessels prior to and 25 minutes after intraperitoneal Ach administration (Sigma-Aldrich, Poznan Poland: 50 μl, 16.6 mg/kg), as well as prior to and 5 minutes after vessel occlusion. […] End-diastolic volumes of vessels were analyzed using ImageJ software 1.46r (NIH Bethesda, Md., USA) and scripts written in Matlab (MathWorks, Natick, Mass., USA). […]"}, "[4]": {"test_system": "thrombin generation in platelet-poor mice plasma", "assay": "Example 3 second part: thrombin generation by calibrated automated thrombogram (CAT)", "format": "in vivo", "settings": "eight weeks, either dose", "description": "Thrombin generation was measured in platelet-poor mice plasma using calibrated automated thrombography (CAT) technique as described in Hemker H C, Giesen P, Al Dieri R, Regnault V, de Smedt E, Wagenvoord R, et al. Calibrated automated thrombin generation measurement in clotting plasma. Pathophysiol Haemost Thromb 2003; 33:4-15. doi:71636. Thrombin generation was activated by mixing 21 μL of diluted plasma (1:1 with BSA5 buffer) with 7 pIL of fluorogenic substrate (Z-Gly-Gly-Arg-AMC, 16.6 mM) and 14 μL of trigger solution containing phospholipids, tissue factor and CaCl2) (4 μM, […] and 16.6 mM, respectively). In the calibration wells, the 14 μL of reagents were replaced with calibrator (102 nM). Immediately after the activation, 5 μL of the mixture was pipetted on paper disks in a flat bottom 96-well polystyrene plate and covered with 40 μL of mineral oil. Fluorescent signals were measured using the Fluoroskan Ascent software (Thermo Labsystems, Helsinki, Finland) and transformed into thrombin concentration as described in Hemker H C, Kremers R. Data management in Thrombin Generation. Thromb Res 2013; 131:3-11. doi:10.1016/j.thromres.2012.10.011. The parameters analyzed included endogenous thrombin potential (ETP), peak thrombin concentration (peak), and lag time."}, "[5]": {"test_system": "macrophages in BCA atherosclerotic plaque", "assay": "Example 3 second part: immunohistochemical detection of macrophages (Mac-3) in atherosclerotic plaque in BCA", "format": "in vivo, mice", "settings": "high dose (10 mg/kg b.w./day)", "description": "For detection of macrophages in BCA, atherosclerotic plaque immunohistochemical staining was performed. After heat-induce epitope retrieval, with 10 mM sodium citrate buffer (pH 6), deparaffinised sections were blocked with 5% normal goat serum and 1% hydrogen peroxide. […] Next, sections were treated with biotinylated secondary antibody, followed by horseradish peroxidase-conjugated streptavidin. 3,3′-diaminobenzidine (DAB) as a chromogen was used for visualization of antibody-antigen interaction. Sections were counterstained with hematoxylin. Intensity of Mac-3 staining was estimated manually considering quantity and intensity of positive reactions. Final results are shown as a mean from two independent analysis."}}, "note": "Values joined by “and” are separate entries in the source; they are usually repeats but may differ in a detail not shown here. Equal entries are not always repeated.", "data": [{"smiles": "CC(C)=CCC/C(C)=C/CC/C(C)=C/CC/C(C)=C/CC/C(C)=C/CC/C(C)=C/CC/C(C)=C/CC1=C(C)C(=O)c2ccccc2C1=O", "note": "[MK-7, menaquinone-7]", "values": [{"measurement": "mean reduction in measured pulse-wave velocity", "setting": "[1]", "result": 30, "unit": "%"}, {"measurement": "concentration of NO3− in plasma", "setting": "ApoE/LDLR−/− mice [2]; 0.03 or 10 mg/kg b.w./day", "result": "did not change significantly"}, {"measurement": "increase in NO2− concentration in plasma", "setting": "ApoE/LDLR−/− mice [2]; high dose 10 mg/kg b.w./day", "result": "~42", "unit": "%"}, {"measurement": "increase in NO2− concentration in plasma", "setting": "ApoE/LDLR−/− mice [2]; low dose 0.03 mg/kg b.w./day", "result": "about 58%"}, {"measurement": "change in volume of BCA after Ach injection", "setting": "ApoE/LDLR−/− mice [3]; high dose 10 mg/kg b.w/day", "result": 3.12, "unit": "%"}, {"measurement": "change in volume of LCA after Ach injection", "setting": "ApoE/LDLR−/− mice [3]; high dose 10 mg/kg b.w/day", "result": 4.45, "unit": "%"}, {"measurement": "change in volume of LCA after Ach injection", "setting": "ApoE/LDLR−/− mice [3]; low dose 0.03 mg/kg b.w/day, listed as vitamin K2, 0.03 mg/kg/day", "result": "~−3% and −3.92%"}, {"measurement": "thrombin generation", "setting": "[4]", "result": "did not affect"}, {"measurement": "intensity of MAC-3 staining", "setting": "[5]", "result": "139±29"}]}]}
